Test results taken from patent US9169241B2, “Quinolinyloxyphenylsulfonamides” (Max-Planck-Gesellschaft Zur Forderung der Wissenschaften …, priority 2009, dated 2015).
Structures can show the parent of a compound that is named as a salt. Where two headings read alike, the source gives them in different places.

How the values were obtained:
viable cells in culture = test: Cell viability assay at 10 μM (CellTiter-Glo, Table VII); assay type: cell-based; conditions: compound 10 μM, 72 h;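 also: graded A 0-20%; B 21-40%; C 41-60%; D over 60% viable cells relative to DMSO control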
Experimental: The CellTiter-Glo® Luminescent Cell Viability Assay (Promega Corporation. Madison, Wis., USA) is method a determining the number of viable cells in culture based on quantification of the ATP being present which is an indicator of metabolically active cells was used according to manufacturers protocol. In detail the assay was performed in a 96 well format were 1000 cells/well were incubated with compound at concentration 10 μM as well as DMSO control for 72 h in 100 μl cell culture medium. Percentage of inhibition was calculated compared to ATP amount of DMSO control.

Compound	melting point	also measured
COc1cc2c(Oc3ccc(NS(=O)(=O)c4cc(F)ccc4F)cc3F)ccnc2cc1OCCCN (as salt: hydrochloride) [Example 122, N-{4-[7-(3-Amino-propoxy)-6-methoxy-quinolin-4-yloxy]-3-fluoro-phenyl}-2,5-difluoro-benzenesulfonamide hydrochloride]	188 to 190 °C	
COc1cc2c(Oc3ccc(NS(=O)(=O)c4ccccc4F)cc3F)ccnc2cc1OCCCN1CCCCC1 [Example 2, 2-Fluoro-N-{3-fluoro-4-[6-methoxy-7-(3-piperidin-1-yl-propoxy)-quinolin-4-yloxy]-phenyl}-benzenesulfonamide]	214 to 216 °C	
COc1cc2c(Oc3ccc(NS(=O)(=O)c4ccc(Cl)cc4F)cc3F)ccnc2cc1OCCCN1CCCCC1 [Example 3, 4-Chloro-2-fluoro-N-{3-fluoro-4-[6-methoxy-7-(3-piperidin-1-yl-propoxy)-quinolin-4-yloxy]-phenyl}-benzenesulfonamide]	122 to 124 °C	viability at 10 µM (viable cells in culture; Homo sapiens, HCT-116, HCT116 def, read-out: percentage (%) of viable cells HCT 116def): 0 to 20%; viability at 10 µM (viable cells in culture; Homo sapiens, HCT-116, HCT116 wt, read-out: percentage (%) of viable cells HCT 116wt): 0 to 20%; viability at 10 µM (viable cells in culture; Homo sapiens, HT-29, HT29, read-out: percentage (%) of viable cells HT29): 0 to 20%; viability at 10 µM (viable cells in culture; Homo sapiens, NCI-H358, H358, read-out: percentage (%) of viable cells H358): 0 to 20%; viability at 10 µM (viable cells in culture; Homo sapiens, NCI-H1650, H1650, read-out: percentage (%) of viable cells H1650): 41 to 60%; viability at 10 µM (viable cells in culture; Homo sapiens, NCI-H1666, H1666, read-out: percentage (%) of viable cells H1666): 41 to 60%; viability at 10 µM (viable cells in culture; Homo sapiens, NCI-H1975, H1975, read-out: percentage (%) of viable cells H1975): 21 to 40%; viability at 10 µM (viable cells in culture; Homo sapiens, NCI-H1993, H1993, read-out: percentage (%) of viable cells H1993): 21 to 40%; viability at 10 µM (viable cells in culture; Homo sapiens, A549, read-out: percentage (%) of viable cells A549): 21 to 40%; viability at 10 µM (viable cells in culture; Homo sapiens, HCC827, read-out: percentage (%) of viable cells HCC827): > 60%; viability at 10 µM (viable cells in culture; Homo sapiens, SW480, read-out: percentage (%) of viable cells SW480): 0 to 20%; viability at 10 µM (viable cells in culture; RKO, read-out: percentage (%) of viable cells RKO): 0 to 20%
COc1cc2c(Oc3ccc(NS(=O)(=O)c4cccc(OC(F)F)c4)cc3F)ccnc2cc1OCCCN1CCN(C)CC1 [Example 30, 3-Difluoromethoxy-N-(3-fluoro-4-{6-methoxy-7-[3-(4-methyl-piperazin-1-yl)-propoxy]-quinolin-4-yloxy}-phenyl)-benzenesulfonamide]	95 to 97 °C	
COc1cc2c(Oc3ccc(NS(=O)(=O)c4cccs4)cc3F)ccnc2cc1OCCCN1CCN(C)CC1 [Example 31, Thiophene-2-sulfonic acid (3-fluoro-4-{6-methoxy-7-[3-(4-methyl-piperazin-1-yl)-propoxy]-quinolin-4-yloxy}-phenyl)-amide]	201 to 202 °C	
COc1cc2c(Oc3ccc(NS(=O)(=O)c4cccc(C(F)(F)F)c4)cc3F)ccnc2cc1OCCCN1CCCC(C)C1 (centres unmarked) [Example 39, ′N-(3-Fluoro-4-{6-methoxy-7-[3-(3-methyl-piperidin-1-yl)-propoxy]-quinolin-4-yloxy}-phenyl)-3-trifluoromethyl-benzenesulfonamide]	128 to 130 °C	
COc1cccc(S(=O)(=O)Nc2ccc(Oc3ccnc4cc(OCCCN5CCCC(C)C5)c(OC)cc34)c(F)c2)c1 (centres unmarked) [Example 42, N-(3-Fluoro-4-{6-methoxy-7-[3-(3-methyl-piperidin-1-yl)-propoxy]-quinolin-4-yloxy}-phenyl)-3-methoxy-benzenesulfonamide]	172 to 174 °C	
COc1cc2c(Oc3ccc(NS(=O)(=O)C4CC4)cc3F)ccnc2cc1OCCCN1CCCC(C)C1 (centres unmarked) [Example 60, Cyclopropanesulfonic acid (3-fluoro-4-{6-methoxy-7-[3-(3-methyl-piperidin-1-yl)-propoxy]-quinolin-4-yloxy}-phenyl)-amide]	158 to 160 °C	
COc1cc2c(Oc3ccc(NS(=O)(=O)c4ccn(C)n4)cc3F)ccnc2cc1OCCCN1CCCC(C)C1 (centres unmarked) [Example 61, 1-Methyl-1H-pyrazole-3-sulfonic acid (3-fluoro-4-{6-methoxy-7-[3-(3-methyl-piperidin-1-yl)-propoxy]-quinolin-4-yloxy}-phenyl)-amide]	164 to 166 °C	
CCn1cc(S(=O)(=O)Nc2ccc(Oc3ccnc4cc(OCCCN5CCCC(C)C5)c(OC)cc34)c(F)c2)cn1 (centres unmarked) [Example 68, 1-Ethyl-1H-pyrazole-4-sulfonic acid (3-fluoro-4-{6-methoxy-7-[3-(3-methyl-piperidin-1-yl)-propoxy]-quinolin-4-yloxy}-phenyl)-amide]	152 to 154 °C	
COc1cc2c(Oc3ccc(NS(=O)(=O)c4cccc(Cl)c4)cc3F)ccnc2cc1OCCCN1CCCC(C)C1 (centres unmarked) [Example 69, 3-Chloro-N-(3-fluoro-4-{6-methoxy-7-[3-(3-methyl-piperidin-1-yl)-propoxy]-quinolin-4-yloxy}-phenyl)-benzenesulfonamide]	110 to 112 °C	
COc1cc2c(Oc3ccc(NS(=O)(=O)c4ccccc4OC)cc3F)ccnc2cc1OCCCN1CCCC(C)C1 (centres unmarked) [Example 71, N-(3-Fluoro-4-{6-methoxy-7-[3-(3-methyl-piperidin-1-yl)-propoxy]-quinolin-4-yloxy}-phenyl)-2-methoxy-benzenesulfonamide]	175 to 176 °C	
COc1cc2c(Oc3ccc(NS(=O)(=O)/C=C/c4ccccc4)cc3F)ccnc2cc1OCCCN1CCCC(C)C1 (centres unmarked) [Example 73, 2-Phenyl-ethenesulfonic acid (3-fluoro-4-{6-methoxy-7-[3-(3-methyl-piperidin-1-yl)-propoxy]-quinolin-4-yloxy}-phenyl)-amide]	104 to 106 °C	
COc1cc2c(Oc3ccc(NS(=O)(=O)c4cccc5cccnc45)cc3F)ccnc2cc1OCCCN1CCCC(C)C1 (centres unmarked) [Example 74, Quinoline-8-sulfonic acid (3-fluoro-4-{6-methoxy-7-[3-(3-methyl-piperidin-1-yl)-propoxy]-quinolin-4-yloxy}-phenyl)-amide]	190 to 191 °C	
CCCCS(=O)(=O)Nc1ccc(Oc2ccnc3cc(OCCCN4CCOCC4)c(OC)cc23)c(F)c1 [Example 79, Butane-1-sulfonic acid {3-fluoro-4-[6-methoxy-7-(3-morpholin-4-yl-propoxy)-quinolin-4-yloxy]-phenyl}-amide]	98 to 100 °C	
COc1cc2c(Oc3ccc(NS(=O)(=O)c4ccccc4C(F)(F)F)cc3F)ccnc2cc1OCCCNC(=O)NC(C)(C)C [Example 98, N-(4-{7-[3-(3-tert-Butyl-ureido)-propoxy]-6-methoxy-quinolin-4-yloxy}-3-fluoro-phenyl)-2-trifluoromethyl-benzenesulfonamide]	106 to 108 °C	
COc1cc2c(Oc3ccc(NS(=O)(=O)c4ccccc4OC)cc3F)ccnc2cc1OCCN1CCOCC1 [Example 103, N-{3-Fluoro-4-[6-methoxy-7-(2-morpholin-4-yl-ethoxy)-quinolin-4-yloxy]-phenyl}-2-methoxy-benzenesulfonamide]	182 to 183 °C	
COc1cc2c(Oc3ccc(NS(=O)(=O)c4cccs4)cc3F)ccnc2cc1OCCN1CCOCC1 [Example 105, Thiophene-2-sulfonic acid {3-fluoro-4-[6-methoxy-7-(2-morpholin-4-yl-ethoxy)-quinolin-4-yloxy]-phenyl}-amide]	146 to 147 °C	
COc1cc2c(Oc3ccc(NS(=O)(=O)c4ccn(C)n4)cc3F)ccnc2cc1OCCN1CCOCC1 [Example 107, 1-Methyl-1H-pyrazole-3-sulfonic acid {3-fluoro-4-[6-methoxy-7-(2-morpholin-4-yl-ethoxy)-quinolin-4-yloxy]-phenyl}-amide]	213 to 214 °C	
COc1cc2c(Oc3cccc(NS(=O)(=O)c4cc(F)ccc4F)c3)ccnc2cc1OCCCN1CCN(C)CC1 [Example 123, 2,5-Difluoro-N-(3-{6-methoxy-7-[3-(4-methyl-piperazin-1-yl)-propoxy]-quinolin-4-yloxy}-phenyl)-benzenesulfonamide]	186 to 188 °C	
COc1cc2c(Oc3ccc(NS(=O)(=O)c4ccccc4C(F)(F)F)c(F)c3)ccnc2cc1OCCCN1CCCC1 [Example 213, N-{2-Fluoro-4-[6-methoxy-7-(3-pyrrolidin-1-yl-propoxy)-quinolin-4-yloxy]-phenyl}-2-trifluoromethyl-benzenesulfonamide]	152 to 156 °C	
COc1cc2c(Oc3ccc(NS(=O)(=O)c4ccccc4C(F)(F)F)cc3F)ccnc2cc1OCCCCN1CCOCC1 [Example 214, N-{3-Fluoro-4-[6-methoxy-7-(4-morpholin-4-yl-butoxy)-quinolin-4-yloxy]-phenyl}-2-trifluoromethyl-benzenesulfonamide]	102 to 104 °C	
COc1cc2c(Oc3ccc(NS(=O)(=O)c4ccccc4C(F)(F)F)c(F)c3)ccnc2cc1OCCCN1CCCC(C)C1 (centres unmarked) [Example 215, N-(2-Fluoro-4-{6-methoxy-7-[3-(3-methyl-piperidin-1-yl)-propoxy]-quinolin-4-yloxy}-phenyl)-2-trifluoromethyl-benzenesulfonamide]	125 to 126 °C	
